Laboratory results published in BindingDB's records for doi:10.1016/j.ejmech.2012.11.007 (Chungnam National University, 2013).

Assay: Inhibition of IL-5 in mouse pro-B Y16 cells after 48 hrs by WST1 assay

Row | IC50 [µM] | Structure (SMILES)
1 | > 30 | N#Cc1ccc(C(=O)/C=C/c2coc3cccc(OCC4CCCCC4)c3c2=O)cc1
2 | > 30 | O=C(/C=C/c1coc2cccc(OCC3CCCCC3)c2c1=O)c1ccc(Cl)cc1
3 | 16.2 | O=C(/C=C/c1coc2cccc(OCC3CCCCC3)c2c1=O)c1ccc(O)cc1
4 | 6.4 | O=c1c(/C=C/C(O)c2ccc(F)cc2)coc2cccc(OCC3CCCCC3)c12 (centres undefined)
5 | > 30 | O=C(/C=C/c1coc2cccc(OCC3CCCCC3)c2c1=O)c1ccc(C(F)(F)F)cc1
6 | > 30 | O=C(/C=C/c1coc2cccc(OCC3CCCCC3)c2c1=O)c1ccccc1
7 | 18.1 | CC(C)(C)c1ccc(C(=O)/C=C/c2coc3cccc(OCC4CCCCC4)c3c2=O)cc1
8 | 25.1 | Cc1ccc(C(=O)/C=C/c2coc3cccc(OCC4CCCCC4)c3c2=O)cc1
9 | > 30 | O=C(/C=C/c1coc2cccc(OCC3CCCCC3)c2c1=O)c1ccc(F)cc1
10 | > 30 | O=C(/C=C/c1coc2cccc(OCC3CCCCC3)c2c1=O)c1ccc([N+](=O)[O-])cc1
11 | > 30 | COc1ccc(C(=O)/C=C/c2coc3cccc(OCC4CCCCC4)c3c2=O)cc1

The remaining lines, values behind:

Row | Structure (SMILES) | IC50 [µM]
12 | O=c1c(/C=C/C(O)c2ccc(C(F)(F)F)cc2)coc2cccc(OCC3CCCCC3)c12 (centres undefined) | 13.2
13 | COc1ccc(C(O)/C=C/c2coc3cccc(OCC4CCCCC4)c3c2=O)cc1 (centres undefined) | 16
14 | Cc1ccc(C(O)/C=C/c2coc3cccc(OCC4CCCCC4)c3c2=O)cc1 (centres undefined) | 15
15 | CC(C)COc1cccc2occ(/C=C/C(O)c3ccc(O)cc3)c(=O)c12 (centres undefined) | > 30
16 | COc1cccc2occ(/C=C/C(=O)c3ccc(O)cc3)c(=O)c12 | > 30
17 | O=c1c(/C=C/C(O)c2ccc([N+](=O)[O-])cc2)coc2cccc(OCC3CCCCC3)c12 (centres undefined) | 7
18 | O=c1c(/C=C/C(O)c2ccccc2)coc2cccc(OCC3CCCCC3)c12 (centres undefined) | 15
19 | CC(C)COc1cccc2occ(/C=C/C(=O)c3ccc(O)cc3)c(=O)c12 | 19.1
20 | CC(C)(C)c1ccc(C(O)/C=C/c2coc3cccc(OCC4CCCCC4)c3c2=O)cc1 (centres undefined) | > 30
21 | N#Cc1ccc(C(O)/C=C/c2coc3cccc(OCC4CCCCC4)c3c2=O)cc1 (centres undefined) | 6.7
22 | O=c1c(/C=C/C(O)c2ccc(O)cc2)coc2cccc(OCC3CCCCC3)c12 (centres undefined) | 12.5
23 | O=c1c(/C=C/C(O)c2ccc(Cl)cc2)coc2cccc(OCC3CCCCC3)c12 (centres undefined) | 7
24 | COc1cccc2occ(/C=C/C(O)c3ccc(O)cc3)c(=O)c12 (centres undefined) | > 30
